Experimental data taken from US20240261297A1, “ANTI-CDK INHIBITORS FOR CANCER TREATMENT” (St. John's Cancer Institute, priority 2021, published 2024).

Assay: Snapshot plasma pharmacokinetics in mice
Format: in vivo
Details: mouse, in vivo; for AUC(0-inf): AUCinf
Protocol: Evaluation of pharmacokinetic (PK) parameters and efficacy of I-3 in a xenograft model was carried out in mice. […] Briefly, mice were treated with 5 mg/kg of 1-3 or merioline-3. Plasma was then collected at different time points and measured for drug concentration. […] PK parameters of I-3 was also compared to a panel of CDK inhibitors (Table 13). […] Likewise, Ribociclib has a better Cmax than I-3, but it is primarily a CDK4/6 inhibitor.

Compound `Nc1nccc(-c2c[nH]c3nccc(Oc4cccc(F)c4)c23)n1` [I-3, 4-(4-(3-fluorophenoxy)-1H-pyrrolo[2,3-b]pyridin-3-yl)pyrimidin-2-amine] has a Tmax of 186 min, an AUC(0-inf) of 1870 ng·h/mL and a Cmax (Cmax) of 483 ng/mL. It also gave a Tmax (iv, 5 mg/kg) of 5 min, a half-life (iv, 5 mg/kg) of 69.1 min and an AUC(0-inf) (iv, 5 mg/kg) of 3700 ng·h/mL. It also gave a Cmax (iv, 5 mg/kg, Cmax) of 5080 ng/mL, a Cmax (po, 5 mg/kg) of 178 ng/mL and a Tmax (po, 5 mg/kg) of 30 min. The half-life (po, 5 mg/kg) was 186 min and the AUC(0-inf) (po, 5 mg/kg) was 1480 ng·h/mL.
